The record followed here is publication PMC5907308, “21st Brazilian Diabetes Society Congress” (Diabetology & Metabolic Syndrome, 2018).

Like-named read-outs stand apart in the source and are kept apart here.

The test system of data set [1] is Slc2a4/GLUT4 expression in 3T3-L1 cell line adipocytes. In words: Slc2a4/GLUT4 expression in adipocytes (Western blotting, RTqPCR). The class given is cell-based. The conditions noted are these: 24 h; E2 10 nM; PPT 10 nM; DPN 100 nM, in the presence or absence of E2. The method, then: It is known that estradiol (E2) via its receptors, ER-alpha and ER-beta, regulates the gene expression through direct binding to DNA, or through interactions with transcription factors, among them SP1 (Sp1 transcription factor). […] Thus, the role of SP1 in the expression of estradiol-mediated Slc2a4/GLUT4 in 3T3-L1 cell line adipocytes was evaluated in an attempt to understand the role of each estradiol receptors in this regulation. For this, the adipocytes were treated with 10 nM estradiol plus 0.05% DMSO (used to solubilize the ER agonists) for 24 h. Cells were also cultured with selective agonists of the different ER isoforms. To evaluate the ER-alpha, the PPT was used, in the concentration of 10 nM, with or without 10 nM of E2 (10E2 + PPT); to evaluate the ER-beta, the DPN was used in the concentration of 100 nM, with or without 10 nM of E2 (10E2 + DPN); always for 24 h. In the control group (0E2), cells were treated with only 0.05% DMSO (vehicle of agonists). The analyzes were: quantification of total GLUT4 protein, nuclear SP1 and nuclear ER-alpha/beta (Western blotting); expression of the Slc2a4 and Sp1 (RTqPCR) genes; and binding activity of the ERs to the SP1 binding site on the Slc2a4 promoter (electrophoretic mobilization, EMSA). Treatment with E2 increased the expression of Slc2a4/GLUT4. […] However, it was observed that both ERalpha and ER-beta activation increased the nuclear content of the transcription factor SP1, however, only the ER-alpha effect, especially isolated, seems to involve SP1 in the observed regulation.
(Immunoblotting shows a protein as a band on a membrane.)

In a further data set the test system is participants with T2DM. Briefly: Vitamin D supplementation, randomized placebo-controlled trial, oxidative stress biomarkers. The class given is in vivo, human. The method, then: Methods: The participants (n = 31; age 46 ± 6.45 years; sex 21/10 female/male) with T2DM were enrolled in this study in two groups. One group received one capsule/week of vitamin D (50.000 U) or placebo for 90 days. At the beginning and after intervention, laboratory analyses (biochemical and OS markers) were performed. After fasting for 12 h, the subjects underwent the following laboratory blood analysis: glucose, lipid profile, uric acid, and C-reactive protein (CRP) which were evaluated by a biochemical autoanalyzer (Dimension Dade AR; Dade Behring), insulin and vitamin D were evaluated by MEIA (AxSYM, Abbott Laboratory, Abbott Park, IL, USA). Advanced oxidation protein products (AOPP) were determined in the plasma using the semiautomated method described by Witko-Sarsat. Analysis of plasma hydroperoxide concentrations was evaluated by two methods (tertbutyl hydroperoxide-initiated chemiluminescence and FOX assay). This study was conducted according to the principles of the Helsinki, and the study protocol was approved by the ethics committee of the University (CAAE: 41718014.9.0000.5231). Kruskal- Wallis with post hoc Dunn’test was performed to verify differences across intervention (placebo or vitamin D). Graph Pad Instat 3 version was used for evaluations.

Data set [2] relates to patients after Roux-en-Y gastric bypass. Briefly: Postprandial hyperinsulinemic hypoglycemia after RYGB, case series. The class given is in vivo, human. The conditions noted are these: Case 1. The method, then: Cases report: Case (1) A person developed postprandial hypoglycemic episodes 6 years after Roux-en-Y gastric bypass (RYGB). A mixed meal tolerance test (MMTT, 500 kcal, 20% protein, 20% fat and 60% carbohydrates) was performed, leading to symptomatic postprandial hyperinsulinemic hypoglycemia (PHH) with a nadir of 45 mg/dL at 120 min (insulin of 8 mU/L; C-peptide of 3.21 ng/mL). […] Cases 2 and 3). Two […] women presented hypoglycemia following meals 3 and 5 years after RYGB. MMTT (120 min): glycemia of 34 mg/dL, insulin of 17 mU/L and C-peptide of 6.23 ng/mL and, in the second one, glycemia of 52 mg/dL, insulin of 9 mU/L and C-peptide of 2.7 ng/mL. PT and MRCP were normal in both cases. […] Case 4). A person who underwent RYGB 1.5 years ago reported hypoglycemic episodes in the last 6 months. MMTT: glycemia of 26 mg/dL at 150 min, insulin of 34 mU/L and C-peptide of 6.03 ng/mL. […] They were submitted to distal pancreatectomy and symptoms disappeared after diazoxid and hydrochlorothiazide. Case 5). A person developed hypoglycemia 10 years after RYGB. […] MMTT: glycemia of 43 mg/dL at 120 min, insulin of 100 mU/L and C-peptide of 1.95 ng/mL. […] Antiinsulin antibodies were negative in all cases (Table 1).

The test system of the next data set is Gram-positive. In words: Antibiogram of tissue fragment cultures of infected diabetic foot ulcers, Gram-positive. The class given is cell-based. The conditions noted are these: 51 cultures of tissue fragment, WHONET 5.6, Graphic 2. The source says:
DFU patients with tissue fragment culture and antibiogram were included in the study sample. Microbiota resistance profile analyzed through WHO freeware softwares BACLINK 2.0 and WHONET 5.6.

The test system of data set [3] is patient with type 2 diabetes mellitus. Here is the method:
Case report: M.G.G.A, person, married, sought an endocrinologist in 2014 due to the diagnosis of type 2 diabetes mellitus 3 years ago, they used glimeperide 4 mg/day and metformin (MTF) 1 g/day. They were hypertensive and dyslipidemic, already under treatment, and reported difficulty in losing and maintaining weight for several years. They denied physical activity (PA) practice for 1 month (before walking 3x/week) and in a 24-hour diet reminder there was an excess of simple carbohydrate (SC) intake and saturated fat (SF). […] The patient was oriented to change their lifestyle and it was also requested exams. […] At this time, due financial limitation, they were directed to maintain medications, prescribed vitamin D3 14,000 IU/week and stimulated lifestyle change (LC).

Data set [4] relates to healthy and non-diabetic women. The conditions noted are these: after 7 days. The method, then:
Methods: Twenty healthy and non-diabetic women (19–37 years old) were evaluated at baseline and 7 days after dapagliflozin (10 mg/day), maintaining their regular lifestyle. Body mass index (BMI), sagittal abdominal diameter, body composition by electrical bioimpedance and energy expenditure of resting and oxidation of energetic substrates in fasting by indirect calorimetry were analyzed. Functional magnetic resonance imaging detected the activation of brain areas against the stimulation of glucose and dapagliflozin. From the oral glucose tolerance test (TTOG), insulin sensitivity, hepatic insulin extraction and beta-cell function were assessed by mathematical modeling. Moreover, glucose, insulin, peptide C, glucacon, glycated hemoglobin, adiponectin and free fatty acids were measured.

For data set [5], the system named is patient with type 2 diabetes. The conditions noted are these: in vivo. Here is the method: An overweight person (BMI 37.4 kg/m^2) with a 9-year history of type 2 diabetes had been taking metformin (1 g/day), glyburide (10 mg/day) and vildaglipitin (100 mg/day) for 7 years. They were admitted for elective bariatric surgery and stopped their medications a day before. […] It is known that there are some factors that contribute for DKA, like decreasing in-carbohydrate intake, infection or reduction of insulin therapy.

A further data set concerns C57BL/6 mice. Here is the method:
Methods: C57BL/6 mice received vehicle or dapagliflozin (1, 5 or 10 mg/kg) by gavage once a day for 2 weeks. Body weight and food intake were evaluated at treatment times 0, 7 and 14 days. At the end of the treatment, glucose tolerance was evaluated by ipGTT as well as epididymal adipose tissue weight and neurotransmitters by immunofluorescence.

The test system of a further data set is patients with DM1. The method, then:
Methods: Observational and retrospective study in which they were analysed the medical recordo f patients with DM1 who made use of this medication in dose of 10 mg/day through 3-6 months.

The subject of another data set is child with CGL type 2. In words: Case report: high doses of insulin in congenital generalized lipodystrophy. The class given is in vivo, human. The conditions noted are these: continuous IV infusion of RI raised to 26.6 IU/kg/day. The method, then: Case: Child with clinical diagnosis of CGL type 2 and diagnosis of diabetes for 1 year. Using Glargina and Lispro insulin basal/bolus (5.1 IU/kg/day) presented mean daily capillary glycemia above 600 mg/dl, associated with irritability, low weight and voracious appetite. Interned for intravenous insulin therapy and nutritional adjustment with standardized diet of 1600 kcal/day fractionated in 7 meals. Initiated continuous infusion of regular insulin (RI), 6.1UI/kg/day. […] Subsequently, it was modified to intramuscular administration, in 5 application times, without differences in glycemic averages. On the 36 th day, Degludeca insulin was introduced (9.3 IU/kg/day) associated with RI (18.2 U/kg/day), evolving within the first 24 h with improved glycemia (180 ± 42 mg/dl). […] After approximately fivefold increase in the initial insulin dose, there was improvement in glycemia, irritability, weight gain and decreased appetite.

Take `C[C@]12CC[C@@H]3c4ccc(O)cc4CC[C@H]3[C@@H]1CC[C@@H]2O` [E2, estradiol]: the Slc2a4/GLUT4 expression result in data set [1] was “increased”.

For the molecule `C=C1CC[C@H](O)C/C1=C/C=C1\CCC[C@]2(C)[C@@H]([C@H](C)/C=C/[C@H](C)C(C)C)CC[C@@H]12` [vitamin D], the “hydroperoxides levels vs placebo group” value in the data set on participants with T2DM (50.000 U/week, 90 days, p = 0.008) is given as “significant reduction”. Moreover, the “FOX levels vs placebo group” value in the data set on participants with T2DM (50.000 U/week, 90 days, p = 0.08) is “trend to decrease”. Further, the “AOPP vs placebo group” value with participants with T2DM (one capsule/week 50.000 U for 90 days, plasma, p = 0.05) is “significant reduction”.

On to `CC1=Nc2ccc(Cl)cc2S(=O)(=O)N1` [diazoxid], for which the “clinical response of postprandial hypoglycemia” value in data set [2] is given as “hypoglycemia was avoided”.

`N#CC(Cc1ccc(O)cc1)c1ccc(O)cc1` (stereo not drawn) [DPN]: the Slc2a4/GLUT4 expression entry in [1] is “decreased”.

For the molecule `CC[C@H]1OC(=O)[C@H](C)[C@@H](O[C@H]2C[C@@](C)(OC)[C@@H](O)[C@H](C)O2)[C@H](C)[C@@H](O[C@@H]2O[C@H](C)C[C@H](N(C)C)[C@H]2O)[C@](C)(O)C[C@@H](C)C(=O)[C@H](C)[C@@H](O)[C@]1(C)O` [Erythromycin], the “%R (resistance), Gram-positive” value in the data set on Gram-positive came out at 70%.

Turning to `Cc1onc(-c2ccccc2)c1C(=O)N[C@@H]1C(=O)N2[C@@H]1SC(C)(C)[C@@H]2C(=O)O` [Oxacillin], the “%R (resistance), Gram-positive” value with Gram-positive was 70%.

Turning to `CCCc1c(-c2ccc(O)cc2)nn(-c2ccc(O)cc2)c1-c1ccc(O)cc1` [PPT], the Slc2a4/GLUT4 expression result in data set [1] was “increase”.

Take `CCOc1ccc(Cc2cc([C@@H]3O[C@H](CO)[C@@H](O)[C@H](O)[C@H]3O)ccc2Cl)cc1` [Dapaglifozin, dapagliflozin]: the “weight (W)” value in data set [3] (9 months of DAPA 10 mg/day and MTF 1 g/day, 78.6 kg before) worked out at 69.9 kg. The BMI in data set [3] (9 months, 33.14 before) turned out to be 29.47 kg/m^2. Besides, the “abdominal circumference (AC)” value in data set [3] (9 months, 108 cm before) amounted to 98 cm. Besides, the “postprandial glycemia (PPG)” value in data set [3] (9 months, 163 before) is 152 mg/dL. Further, in [3] (9 months, 166 before), the “fasting glycemia (FG)” value was found to be 118 mg/dL. For the same molecule, the Hb1Ac in [3] (9 months, […] before) amounted to 7.0%. Also, in data set [3] (during 3 years of follow-up), the HbA1c result is “around 6.8%” and the “weight (W)” value is given as 69 kg. The adiponectin levels in [4] (3.2 ± 1.4 at baseline, p = 0.02) turned out to be 5.7 ± 3.3 µg/mL. Moreover, the insulinemia in data set [4] (5.7 ± 3.6 at baseline, p = 0.05) turned out to be 3.9 ± 3.5 mU/mL. The BMI in data set [4] (21.7 ± 2.0 at baseline, p = 0.05) came to 21.5 ± 2.0 kg/m^2. Also, the fat percentage in [4] (28.4 ± 6.3 at baseline, p = 0.46) worked out at 27.6 ± 4.0%. In data set [4] (75 ± 7 at baseline, p = 0.02), the glycemia was 71 ± 7 mg/dL. Further, in data set [5], the “arterial pH at readmission” value was determined as 7.23, the bicarbonate at readmission is given as 5 mEq/L and the glucose at readmission is 165 mg/dL. Moreover, the “body weight gain (mean)” value with C57BL/6 mice (1, 5 or 10 mg/kg, 2 weeks, p < 0.05) is on record as 0.56 ± 1.1 g. In addition, the food intake result in the data set on C57BL/6 mice (2 weeks) is listed as “did not alter food intake significantly”. The “fasting glycemia (mean)” value in the data set on C57BL/6 mice (2 weeks, p < 0.05) stood at 165.6 ± 28.8 mg/dL. In the data set with C57BL/6 mice (2 weeks, p = 0.13), the “epididymal adipose mass (mean)” value amounted to 0.15 ± 0.02 g. Also, the “area under glucose curve during the glucose tolerance test (mean)” value with C57BL/6 mice (ipGTT, p < 0.05) is recorded as 28,078 ± 5623.5 arbitrary units. In addition, in the data set on C57BL/6 mice (min = 30, max = 1221, p < 0.05), the “glycosuria (mean)” value is listed as 307.2 mg/dL. The “average BMI after treatment” value with patients with DM1 (26.1 before, p = 0.002) worked out at 25.4 kg/m^2. Also, the “systolic blood pressure, median after therapy” value with patients with DM1 (120 mmHg before, p = 0.02) is 115 mmHg. Further, in the data set with patients with DM1 (in vivo), the patients with ketoacidosis is listed as 8.3% and the “patients with pain or pruritus on genital region” value is on record as 33.3%. Also, the “patients with urinary tract infection (UTI)” value in the data set on patients with DM1 (n = 12) was 8.3%. Moreover, the “average weight after therapy” value with patients with DM1 (n = 12, 68.3 kg before, p = 0.002) was 65.3 kg.

Consider `CO/N=C(\C(=O)N[C@@H]1C(=O)N2C(C(=O)O)=C(CSc3nc(=O)c(=O)[nH]n3C)CS[C@H]12)c1csc(N)n1` [Ceftriaxone], for which, in the data set on Gram-positive, the “%R (resistance), Gram-positive” value worked out at 70%.

Consider RI: regular insulin, for which the mean capillary glycemia in the data set with child with CGL type 2 was found to be 283 ± 99 mg/dL.
